One block for each compound: values may come before it.
Legend:
Assay type in all cases: physicochemical
[1] = aspect ratio of crystals from microscopic picture (Digital microscope VHX-5000, 50x)
From the text: The “anhydrous D-allose crystals” of the present invention have an extremely large average particle size as described above and are not in a fine needle form, having a characteristic aspect ratio of the crystal. In the present invention, the aspect ratio refers to the ratio of the long diameter to the short diameter of a crystal (short diameter: minimum length of lines passing through the center of gravity of the plane shape of a crystal, long diameter: maximum length of a crystal measured orthogonal to the short diameter). In the present specification, the aspect ratio in a numerical range from A to B (A and B: arbitrary numbers) means that all of the aspect ratios of a specified number (preferably at least 10, for example 10) of crystal particles randomly selected are within the numerical range. Example of random selection of crystal particles includes a method comprising taking a microscopic picture of crystals at 20× to 50× magnification and, from the crystals on the diagonal line drawn from the upper left to the lower right of the microscopic picture taken, selecting 10 crystals with a full body shown in order from the upper left on the diagonal line. Specifically, the aspect ratio is preferably 1.0 to 10.0, more preferably 2.0 to 8.0, still more preferably 2.0 to 7.0. Next, the aspect ratio of the anhydrous D-allose crystals of the present invention was examined. Specifically, a microscopic picture of each of the anhydrous D-allose crystals obtained in the previous Test Nos. 1 to 5, 7 to 10 and 12 were taken using “Digital microscope VHX-5000” manufactured by KEYENCE Corporation (50×magnification). Among the crystals on the diagonal line drawn from the upper left to the lower right of the microscopic picture taken, 10 crystals with a full picture shown were selected in order from the upper left and then the long diameter and the short diameter of each crystal were measured for calculation of the aspect ratio (Long diameter/Short diameter, wherein short diameter refers to minimum length of lines passing through the center of gravity of the plane shape of a crystal, and long diameter refers to maximum length of a crystal measured orthogonal to the short diameter). The minimum value of the aspect ratio was 1.1 and the maximum value was 9.6 (Table 9).

[2] = particle size distribution by laser diffraction (Mastersizer 3000, dry dispersion unit Aero S); conditions: average of 5 measurements, dispersion pressure 1.0 bar
From the text: The melting point (Tm) in the DSC refers to the melting start temperature of the endothermic peak obtained by DSC measurement (temperature at the extrapolated intersection of the base line and the maximum slope line of the endothermic peak), and the melting enthalpy (ΔH) refers to the area of the endothermic peak (ASTM D3418-15, Standard Test Method for Transition Temperatures and Enthalpies of Fusion and Crystallization of Polymers by Differential Scanning calorimetry). Further, in the present invention, the average particle size refers to the volume-based average particle size d[4,3], which is usually measured with a laser diffraction particle size distribution analyzer.
Next, the particle size distribution of the anhydrous D-allose crystals of the present invention was examined. Specifically, the anhydrous D-allose crystals obtained in the previous Test Nos. 1 to 5, 7 to 10 and 12, were subjected to measurement of particle size distribution under the measurement conditions shown in Table 7 using “Mastersizer 3000” and a “dry dispersion unit Aero S” manufactured by Malvern Instruments. More specifically, the measurement was repeated 5 times, and the average value of the 5 times measurements was used. No great variability was seen among the 5 times measurement values. The particle size distribution was expressed on a volume basis, and the volume-based average particle size d[4,3] and standard deviation σ were recorded. Also, the coefficient of variation CV=σ/d[4,3] was calculated in order to relatively evaluate the variation in the particle size distribution.

[3] = repose angle measured by powder tester PT-E (fluidity of anhydrous D-allose crystals); conditions: for Repose angle (degrees): anhydrous crystals of Test Nos. 1 to 12, hydrous crystals dried with evaporator (30° C., 20 hPa (abs), about 2 hours), average of three directions
Method: The fluidity of the anhydrous D-allose crystals obtained by drying the hydrous crystals obtained in each of Tests Nos. 1 to 12 with an evaporator (30° C., 20 hPa (abs), about 2 hours) as described above was evaluated by the repose angle measured by a powder tester PT-E (manufactured by Hosokawa Micron Corporation). Specifically, a sample was dropped and deposited on a disk, and the inclination angle was measured from three directions to obtain an average value. From the average value, the degree of fluidity was evaluated according to Table 1 in the Japanese Pharmacopoeia, 17th edition, Reference Information G2 physical property-related “Powder Fluidity” (same as the so-called Carr's fluidity index table, shown as Table 4).
In order to measure the water content in the crystals obtained by each of the drying methods, drying under reduced pressure under conditions at 70° C. for 18 hours was performed to calculate the water content in the crystals from the weight loss through the drying under reduced pressure. The repose angle was measured by the method described above to determine the degree of fluidity. The yield rate was calculated by the following expression. Yield rate (%)=(D/C)×100 [Expression 4]

- Aspect ratio (Long diameter/Short diameter) ([1]; crystal ① of 10 selected, listed as 4): 4.3
- Aspect ratio (Long diameter/Short diameter) ([1]; crystal ② of 10 selected, listed as 4): 4.0
- Aspect ratio (Long diameter/Short diameter) ([1]; crystal ③ of 10 selected, listed as 4): 4.2
- Aspect ratio (Long diameter/Short diameter) ([1]; crystal ④ of 10 selected, listed as 4): 2.0
- Aspect ratio (Long diameter/Short diameter) ([1]; crystal ⑤ of 10 selected, listed as 4): 6.0
- Aspect ratio (Long diameter/Short diameter) ([1]; crystal ⑥ of 10 selected, listed as 4): 1.1
- Aspect ratio (Long diameter/Short diameter) ([1]; crystal ⑦ of 10 selected, listed as 4): 3.9
- Aspect ratio (Long diameter/Short diameter) ([1]; crystal ⑧ of 10 selected, listed as 4): 8.1
- Aspect ratio (Long diameter/Short diameter) ([1]; crystal ⑨ of 10 selected, listed as 4): 3.8
- Aspect ratio (Long diameter/Short diameter) ([1]; crystal ⑩ of 10 selected, listed as 4): 4.1
- d [4, 3] (volume-based average particle size) ([2]; listed as 4): 588 μm
- Repose angle (degrees) ([3]; listed as 4): 42.3 degrees
SMILES: O=C[C@H](O)[C@H](O)[C@H](O)[C@H](O)CO [Test No. 4, D-allose]

- Aspect ratio (Long diameter/Short diameter) ([1]; crystal ① of 10 selected, listed as 2): 2.9
- Aspect ratio (Long diameter/Short diameter) ([1]; crystal ② of 10 selected, listed as 2): 3.0
- Aspect ratio (Long diameter/Short diameter) ([1]; crystal ③ of 10 selected, listed as 2): 3.5
- Aspect ratio (Long diameter/Short diameter) ([1]; crystal ④ of 10 selected, listed as 2): 3.5
- Aspect ratio (Long diameter/Short diameter) ([1]; crystal ⑤ of 10 selected, listed as 2): 3.0
- Aspect ratio (Long diameter/Short diameter) ([1]; crystal ⑥ of 10 selected, listed as 2): 5.5
- Aspect ratio (Long diameter/Short diameter) ([1]; crystal ⑦ of 10 selected, listed as 2): 2.6
- Aspect ratio (Long diameter/Short diameter) ([1]; crystal ⑧ of 10 selected, listed as 2): 4.9
- Aspect ratio (Long diameter/Short diameter) ([1]; crystal ⑨ of 10 selected, listed as 2): 3.0
- Aspect ratio (Long diameter/Short diameter) ([1]; crystal ⑩ of 10 selected, listed as 2): 4.1
- d [4, 3] (volume-based average particle size) ([2]; listed as 2): 563 μm
- Repose angle (degrees) ([3]; listed as 2): 42.7 degrees
SMILES: O=C[C@H](O)[C@H](O)[C@H](O)[C@H](O)CO [Test No. 2, D-allose]

- Aspect ratio (Long diameter/Short diameter) ([1]; crystal ① of 10 selected, listed as 1): 3.5
- Aspect ratio (Long diameter/Short diameter) ([1]; crystal ② of 10 selected, listed as 1): 3.4
- Aspect ratio (Long diameter/Short diameter) ([1]; crystal ③ of 10 selected, listed as 1): 4.1
- Aspect ratio (Long diameter/Short diameter) ([1]; crystal ④ of 10 selected, listed as 1): 4.4
- Aspect ratio (Long diameter/Short diameter) ([1]; crystal ⑤ of 10 selected, listed as 1): 4.5
- Aspect ratio (Long diameter/Short diameter) ([1]; crystal ⑥ of 10 selected, listed as 1): 2.2
- Aspect ratio (Long diameter/Short diameter) ([1]; crystal ⑦ of 10 selected, listed as 1): 4.3
- Aspect ratio (Long diameter/Short diameter) ([1]; crystal ⑧ of 10 selected, listed as 1): 3.6
- Aspect ratio (Long diameter/Short diameter) ([1]; crystal ⑨ of 10 selected, listed as 1): 3.5
- Aspect ratio (Long diameter/Short diameter) ([1]; crystal ⑩ of 10 selected, listed as 1): 4.1
- d [4, 3] (volume-based average particle size) ([2]; listed as 1): 472 μm
- Repose angle (degrees) ([3]; listed as 1): 43.0 degrees
SMILES: O=C[C@H](O)[C@H](O)[C@H](O)[C@H](O)CO [Test No. 1, D-allose]

- Aspect ratio (Long diameter/Short diameter) ([1]; crystal ① of 10 selected, listed as 8): 3.5
- Aspect ratio (Long diameter/Short diameter) ([1]; crystal ② of 10 selected, listed as 8): 7.7
- Aspect ratio (Long diameter/Short diameter) ([1]; crystal ③ of 10 selected, listed as 8): 2.0
- Aspect ratio (Long diameter/Short diameter) ([1]; crystal ④ of 10 selected, listed as 8): 3.6
- Aspect ratio (Long diameter/Short diameter) ([1]; crystal ⑤ of 10 selected, listed as 8): 3.1
- Aspect ratio (Long diameter/Short diameter) ([1]; crystal ⑥ of 10 selected, listed as 8): 2.8
- Aspect ratio (Long diameter/Short diameter) ([1]; crystal ⑦ of 10 selected, listed as 8): 3.8
- Aspect ratio (Long diameter/Short diameter) ([1]; crystal ⑧ of 10 selected, listed as 8): 4.7
- Aspect ratio (Long diameter/Short diameter) ([1]; crystal ⑨ of 10 selected, listed as 8): 1.7
- Aspect ratio (Long diameter/Short diameter) ([1]; crystal ⑩ of 10 selected, listed as 8): 3.3
- d [4, 3] (volume-based average particle size) ([2]; listed as 8): 708 μm
- Repose angle (degrees) ([3]; listed as 8): 41.7 degrees
SMILES: O=C[C@H](O)[C@H](O)[C@H](O)[C@H](O)CO [Test No. 8, D-allose]

- Aspect ratio (Long diameter/Short diameter) ([1]; crystal ① of 10 selected, listed as 7): 7.2
- Aspect ratio (Long diameter/Short diameter) ([1]; crystal ② of 10 selected, listed as 7): 1.7
- Aspect ratio (Long diameter/Short diameter) ([1]; crystal ③ of 10 selected, listed as 7): 5.2
- Aspect ratio (Long diameter/Short diameter) ([1]; crystal ④ of 10 selected, listed as 7): 5.5
- Aspect ratio (Long diameter/Short diameter) ([1]; crystal ⑤ of 10 selected, listed as 7): 2.5
- Aspect ratio (Long diameter/Short diameter) ([1]; crystal ⑥ of 10 selected, listed as 7): 4.1
- Aspect ratio (Long diameter/Short diameter) ([1]; crystal ⑦ of 10 selected, listed as 7): 4.3
- Aspect ratio (Long diameter/Short diameter) ([1]; crystal ⑧ of 10 selected, listed as 7): 4.9
- Aspect ratio (Long diameter/Short diameter) ([1]; crystal ⑨ of 10 selected, listed as 7): 3.5
- Aspect ratio (Long diameter/Short diameter) ([1]; crystal ⑩ of 10 selected, listed as 7): 2.0
- d [4, 3] (volume-based average particle size) ([2]; listed as 7): 549 μm
- Repose angle (degrees) ([3]; listed as 7): 41.0 degrees
- Degree of fluidity ([3]; anhydrous crystals of Test Nos. 1 to 12, evaluated from repose angle according to Table 4): Passable (41~45)
SMILES: O=C[C@H](O)[C@H](O)[C@H](O)[C@H](O)CO [Test No. 7, D-allose]

From patent US12122802B2, “D-allose crystal and production method thereof” (MATSUTANI CHEMICAL INDUSTRY CO., LTD., priority 2019, dated 2024)
